According to patent US7253212B2, “Retinol derivative and cosmetic composition comprising the same” (Coreana Cosmetics Co., Ltd., priority 2002, dated 2007):

How the values were obtained:
[1] = tested on: Human normal fibroblasts; assay: Effect on collagen biosynthesis (procollagen type C-peptide kit); assay type: cell-based; conditions: 48 hours treatment
Protocol: Human normal fibroblasts (ATCC) were inoculated (2×10^4 cells/well) on 96-well microplate containing DMEM supplemented with FBS and incubated for 24 hours at 37° C. After incubation, the medium in microplate was replaced with fresh DMEM without serum comprising the derivative of this invention, retinol or ascorbic acid and then additional incubation for 48 hours was carried out. Control was not treated with any of the compounds described above. Following incubation, each well was rinsed, fresh DMEM without serum was supplied and then additional incubation for 24 hours was performed. Then, procollagen type C-peptide obtained from the supernatant of each well was measured using a kit purchased from Takara Co. (Japan) and the measured values were converted to ng/2×10^4 cells, which indicate the amount of collagen newly generated.

[2] = Scavenging effect on free radical (DPPH); conditions: 30 min, absorbance 520 nm
Protocol: Evaluation of scavenging effect on free radical was performed using DPPH (1,1-diphenyl-2-picryl-hydrazyl, Sigma-Aldrich). 100 μl of each of the substances (the derivative of this invention, retinol and ascorbic acid) diluted to a suitable concentration and 100 μl of 400 μM DPPH solution were consequently added to a 96-well microplate and agitation was performed, followed by reaction for 30 min. at room temperature. Then, absorbance at 520 nm was measured using spectrophotometer. Control contains 100 μl of ethanol in place of the substance to be tested. The scavenging effect on free radical was calculated as following formula: scavenging effect on free radical (%)=100−{(absorbance of sample solution/absorbance of control)×100}

[3] = tested on: tyrosinase; assay: Inhibitory effect on tyrosinase activity; assay type: biochemical
Protocol: A tyrosinase used herein was purchased from Sigma (U.S.A.). Tyrosine as substrate was used as a solution (0.1 mg/ml) dissolved in 0.05 M sodium phosphate buffer (pH 6.8).
0.5 ml of tyrosine solution was placed in a test tube and 0.5 ml of sample solution to be evaluated was added. The test tube was allowed to stand in incubator for 10 min. at 37° C. and then 0.5 ml of tyrosinase (200 U/ml) was added. The reaction was carried out for 10 min at 37° C. As a control group, 0.5 ml of buffer solution was added instead of the sample to be evaluated. The reaction was quenched by placing the test tube on ice and the absorbance of the resultant was measured at 475 nm with spectrophotometer. The inhibitory effect on tyrosinase activity was determined by the equation: inhibition rate on tyrosinase activity (%)=100−{(absorbance of sample/absorbance of control)×100}

| Compound | Amount of Collagen Newly Generated ([1]; addition amount 50 μg) | Amount of Collagen Newly Generated ([1]; addition amount 100 μg) | Amount of Collagen Newly Generated ([1]; addition amount 200 μg) | Scavenging effect on free radical (%) ([2]; concentration 0.5 mM) | Scavenging effect on free radical (%) ([2]; concentration 1 mM) | Inhibition rate on tyrosinase activity (%) ([3]; sample conc. 10 μg/ml) | Inhibition rate on tyrosinase activity (%) ([3]; sample conc. 20 μg/ml) | Inhibition rate on tyrosinase activity (%) ([3]; sample conc. 50 μg/ml) | Inhibition rate on tyrosinase activity (%) ([3]; sample conc. 100 μg/ml) | Inhibition rate on tyrosinase activity (%) ([3]; sample conc. 200 μg/ml) | Inhibition rate on tyrosinase activity (%) ([3]; sample conc. 500 μg/ml) |
| --- | --- | --- | --- | --- | --- | --- | --- | --- | --- | --- | --- |
| CC1=C(/C=C/C(C)=C/C=C/C(C)=C/CO)C(C)(C)CCC1 [Retinol] | 174 ng/2 × 10^4 cells | 233 ng/2 × 10^4 cells | 286 ng/2 × 10^4 cells | 0.4% | 1.6% | 0.6% | 1.1% | 3.2% | 3.9% | 5.6% | 9.2% |
| CC1=C(/C=C/C(C)=C/C=C/C(C)=C/COC(=O)COC2=C(O)C(=O)OC2C(O)CO)C(C)(C)CCC1 (stereo not drawn) [Derivative of this invention] | 215 ng/2 × 10^4 cells | 290 ng/2 × 10^4 cells | 349 ng/2 × 10^4 cells | 95.7% | 96.4% | 8.1% | 10.7% | 13.8% | 32.9% | 47.1% | 78.8% |
| O=C1O[C@H]([C@@H](O)CO)C(O)=C1O [L-ascorbic acid] | 198 ng/2 × 10^4 cells | 267 ng/2 × 10^4 cells | 314 ng/2 × 10^4 cells | 91.2% | 91.9% | 5.1% | 9.8% | 13.2% | 22.5% | 34.8% | 62.4% |
